Patent US7138361B2, “Herbicidal heterocycles” (E. I. du Pont de Nemours and Company, priority 2000, dated 2006)

Key:
Format in all cases: in vivo
[1] = test system: Surinam grass (Brachiaria decumbens); test: Test B postemergence
Procedure, shortened: (§1)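 Preemergence: seeds planted and treated with test chemicals in non-phytotoxic solvent with surfactant; postemergence on plants 2–18 cm (1- to 4-leaf stage). Kept in greenhouse 13–15 days, then visually rated against controls on a 0 (no effect) to 100 (complete control) scale.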

[2] = test system: barnyardgrass (Echinochloa crus-galli); test: Test B postemergence
Procedure, shortened: as §1

[3] = test system: blackgrass (Alopecurus myosuroides); test: Test B postemergence
Procedure, shortened: as §1

[4] = test system: cocklebur (Xanthium strumarium); test: Test B postemergence
Procedure, shortened: as §1

corn (Zea mays) [5] = test: Test B postemergence
Procedure, shortened: as §1

[6] = test system: crabgrass (Digitaria sanguinalis); test: Test B postemergence; settings: Rate 125 g/ha, scale 0 to 100, 0 no effect, 100 complete control
Procedure, shortened: as §1

[7] = test system: giant foxtail (Setaria faberii); test: Test B postemergence; settings: Rate 125 g/ha, scale 0 to 100, 0 no effect, 100 complete control
Procedure, shortened: as §1

[8] = test system: lambsquarters (Chenopodium album); test: Test B postemergence; settings: Rate 125 g/ha, scale 0 to 100, 0 no effect, 100 complete control
Procedure, shortened: as §1

[9] = test system: morning glory (Ipomoea hederacea); test: Test B postemergence; settings: Rate 125 g/ha, scale 0 to 100, 0 no effect, 100 complete control
Procedure, shortened: as §1

[10] = test system: pigweed (Amaranthus retroflexus); test: Test B postemergence; settings: Rate 125 g/ha, scale 0 to 100, 0 no effect, 100 complete control
Procedure, shortened: as §1

[11] = test system: velvetleaf (Abutilon theophrasti); test: Test B postemergence; settings: Rate 125 g/ha, scale 0 to 100, 0 no effect, 100 complete control
Procedure, shortened: as §1

[12] = test system: wheat (Triticum aestivum); test: Test B postemergence; settings: Rate 125 g/ha, scale 0 to 100, 0 no effect, 100 complete control
Procedure, shortened: as §1

wild oat (Avena fatua) = test: Test B postemergence; settings: Rate 125 g/ha, scale 0 to 100, 0 no effect, 100 complete control
Procedure, shortened: as §1

[13] = test system: Surinam grass (Brachiaria decumbens); test: Test B preemergence
Procedure, shortened: as §1

[14] = test system: barnyardgrass (Echinochloa crus-galli); test: Test B preemergence
Procedure, shortened: as §1

[15] = test system: cocklebur (Xanthium strumarium); test: Test B preemergence
Procedure, shortened: as §1

corn (Zea mays) [16] = test: Test B preemergence
Procedure, shortened: as §1

[17] = test system: crabgrass (Digitaria sanguinalis); test: Test B preemergence
Procedure, shortened: as §1

[18] = test system: giant foxtail (Setaria faberii); test: Test B preemergence
Procedure, shortened: as §1

[19] = test system: lambsquarters (Chenopodium album); test: Test B preemergence
Procedure, shortened: as §1

[20] = test system: morning glory (Ipomoea hederacea); test: Test B preemergence
Procedure, shortened: as §1

[21] = test system: pigweed (Amaranthus retroflexus); test: Test B preemergence
Procedure, shortened: as §1

rice (Oryza saliva) = test: Test B preemergence
Procedure, shortened: as §1

[22] = test system: velvetleaf (Abutilon theophrasti); test: Test B preemergence; settings: preemergence; Rate 125 g/ha; scale of 0 to 100 where 0 is no effect and 100 is complete control; 13 to 15 days
Procedure, shortened: as §1

[23] = test system: barnyardgrass (Echinochloa crus-galli); test: Test C flooded paddy test; settings: for Plant response rating, Barnyardgrass: scale 0 to 100 (0 no effect, 100 complete control)
Procedure, shortened: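 Ratings come from visual comparison with control plants after 12 to 14 days in the greenhouse. Each species was at the 2-leaf stage when the flooded paddy was treated. Scores run from 0, meaning no effect, to 100, meaning complete control.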

Sunflower [24] = test: Test C preemergence; settings: Rate 500 g/ha, visual evaluation after 12 to 14 days
Sunflower [25] = test: Test C preemergence; settings: Rate 62 g/ha, scale 0 to 100
[26] = Rate 125 g/ha, scale 0 to 100, 0 no effect, 100 complete control
[27] = Rate 500 g/ha, scale 0 to 100, 0 is no effect, 100 is complete control, 13 to 15 days
[28] = Preemergence, Rate 500 g/ha, scale 0 to 100, 0 no effect, 100 complete control
[29] = preemergence, Rate 125 g/ha, scale of 0 to 100 where 0 is no effect and 100 is complete control, 13 to 15 days

CC(C)(C)c1ccn(C2OCN(c3cccc(OC(F)F)c3)C2=O)n1 (stereo not drawn) [Compound 133]
Plant response rating, Surinam grass [1, 26]: 0
Plant response rating, Surinam grass [1, 27]: 40
Plant response rating, Barnyardgrass [2, 26]: 80
Plant response rating, Barnyardgrass [2, 27]: 100
Plant response rating, Blackgrass [3, 26]: 0
Plant response rating, Blackgrass [3, 27]: 0
Plant response rating, Cocklebur [4, 26]: 10
Plant response rating, Cocklebur [4, 27]: 30
Plant response rating, Corn (corn (Zea mays) [5]; [26]): 0
Plant response rating, Corn (corn (Zea mays) [5]; [27]): 0
Plant response rating, Crabgrass [6]: 40
Plant response rating, Foxtail, Giant [7]: 0
Plant response rating, Lambsquarters [8]: 100
Plant response rating, Morningglory [9]: 0
Plant response rating, Pigweed [10]: 80
Plant response rating, Velvetleaf [11]: 0
Plant response rating, Wheat [12]: 0
Plant response rating, Wild Oat (wild oat (Avena fatua)): 0
Plant response rating, Surinam grass [13, 28]: 100
Plant response rating, Surinam grass [13, 29]: 100
Plant response rating, Barnyardgrass [14, 28]: 100
Plant response rating, Barnyardgrass [14, 29]: 100
Plant response rating, Cocklebur [15, 28]: 0
Plant response rating, Cocklebur [15, 29]: 0
Plant response rating, Corn (corn (Zea mays) [16]; [28]): 90
Plant response rating, Corn (corn (Zea mays) [16]; [29]): 0
Plant response rating, Crabgrass [17, 28]: 100
Plant response rating, Crabgrass [17, 29]: 100
Plant response rating, Foxtail, Giant [18, 28]: 100
Plant response rating, Foxtail, Giant [18, 29]: 100
Plant response rating, Lambsquarters [19, 28]: 100
Plant response rating, Lambsquarters [19, 29]: 100
Plant response rating, Morningglory [20, 28]: 0
Plant response rating, Morningglory [20, 29]: 0
Plant response rating, Pigweed [21, 28]: 100
Plant response rating, Pigweed [21, 29]: 100
Plant response rating, Rice (rice (Oryza saliva); [28]): 100
Plant response rating, Rice (rice (Oryza saliva); [29]): 90
Plant response rating, Velvetleaf [22]: 0
Barnyardgrass plant response rating ([23]; Flooded Paddy, Rate 500 g/ha, scale 0 to 100, 0 no effect, 100 complete control): 100
Plant response rating, Barnyardgrass ([23]; flooded paddy test, Rate 125 g/ha): 90
Plant response rating, Barnyardgrass ([23]; flooded paddy test, Rate 250 g/ha): 100
Plant response rating (scale 0 to 100), Barnyardgrass ([23]; flooded paddy test, Rate 62 g/ha, visually evaluated after 12 to 14 days, 0 = no effect, 100 = complete control): 90
Plant response rating (0 to 100), Sunflower (Sunflower [24]): 0
Plant response rating, Sunflower (Sunflower [25]): 0
